In patent US10183914B2 (BAYER CROPSCIENCE AKTIENGESELLSCHAFT, priority 2014, dated 2019):

Assays:
[1] = tested on: Triticum aestivum (spring); experiment: Post-emergence herbicidal effect and crop plant compatibility; type: in vivo; conditions: visual scoring after about 3 weeks
Experimental: (§1) Seeds of monocotyledonous and dicotyledonous weed and crop plants are laid out in sandy loam in wood-fiber pots, covered with soil and cultivated in a greenhouse under good growth conditions. 2 to 3 weeks after sowing, the test plants are treated at the one-leaf stage. The compounds of the invention, formulated in the form of wettable powders (WP) or as emulsion concentrates (EC), are then sprayed onto the green parts of the plants as aqueous suspension or emulsion at a water application rate equating to 600 to 800 L/ha with addition of 0.2% wetting agent. After the trial plants have been left to stand in a greenhouse under optimal growth conditions for about 3 weeks, the efficacy of the formulations is scored visually in comparison to untreated controls (herbicidal action in percent (%): 100% efficacy=the plants have died, 0% efficacy=like control plants).

Oryza sativa [2] = experiment: as above; type: in vivo; conditions: visual scoring after about 3 weeks
Experimental: as §1

Zea mays [3] = experiment: as above; type: in vivo; conditions: visual scoring after about 3 weeks
Experimental: as §1

[4] = tested on: Triticum aestivum (spring); experiment: Pre-emergence herbicidal effect and crop plant compatibility; type: in vivo; conditions: 3 weeks
From the text: (§2) Seeds of monocotyledonous and dicotyledonous weed plants and crop plants are laid out in wood-fiber pots in sandy loam and covered with soil. The compounds of the invention, formulated in the form of wettable powders (WP) or as emulsion concentrates (EC), are then applied to the surface of the covering soil as aqueous suspension or emulsion at a water application rate equating to 600 to 800 L/ha with addition of 0.2% wetting agent.
(§3) After the treatment, the pots are placed in a greenhouse and kept under good growth conditions for the trial plants. The damage to the trial plants is scored visually after a trial duration of 3 weeks by comparison with untreated controls (herbicidal activity in percent (%): 100% efficacy=the plants have died, 0% efficacy=like control plants).

Oryza sativa [5] = experiment: as above; type: in vivo; conditions: 3 weeks
From the text: as §2, §3

Zea mays [6] = experiment: as above; type: in vivo; conditions: 3 weeks
From the text: as §2, §3

Viola tricolor = experiment: Pre-emergence herbicidal effect; type: in vivo; conditions: 3 weeks
From the text: as §2, §3

Matricaria inodora = experiment: Pre-emergence herbicidal effect; type: in vivo; conditions: 3 weeks
From the text: as §2, §3

Amaranthus retroflexus = experiment: Pre-emergence herbicidal effect; type: in vivo; conditions: 3 weeks
From the text: as §2, §3

Stellaria media = experiment: Pre-emergence herbicidal effect; type: in vivo; conditions: 3 weeks
From the text: as §2, §3

Veronica persica = experiment: Pre-emergence herbicidal effect; type: in vivo; conditions: 3 weeks
From the text: as §2, §3

Echinochloa crus-galli = experiment: Pre-emergence herbicidal effect; type: in vivo; conditions: 3 weeks
From the text: as §2, §3

Setaria viridis = experiment: Pre-emergence herbicidal effect; type: in vivo; conditions: 320 g/ha, 3 weeks
From the text: as §2, §3

Alopecurus myosuroides = experiment: Pre-emergence herbicidal effect; type: in vivo; conditions: 3 weeks
From the text: as §2, §3

[7] = logp (HCOOH), physicochemical characterization; conditions: for chromatographic logP: HCOOH (formic acid)
Polygonum convolvulus = experiment: Pre-emergence herbicidal effect; type: in vivo; conditions: 3 weeks
From the text: as §2, §3

Lolium multiflorum = experiment: Pre-emergence herbicidal effect; type: in vivo; conditions: 320 g/ha, 3 weeks
From the text: as §2, §3

SMILES	post-emergence efficacy TRZAS ([1]; 80 g/ha) [%]	post-emergence efficacy TRZAS ([1]; 320 g/ha) [%]	post-emergence efficacy ORYSA (Oryza sativa [2]; 80 g/ha) [%]	post-emergence efficacy ORYSA (Oryza sativa [2]; 320 g/ha) [%]	post-emergence efficacy ZEAMX (Zea mays [3]; 80 g/ha) [%]	post-emergence efficacy ZEAMX (Zea mays [3]; 320 g/ha) [%]	TRZAS herbicidal activity in percent ([4]; 80 g/ha) [%]	TRZAS herbicidal activity in percent ([4]; 320 g/ha) [%]	ORYSA herbicidal activity in percent (Oryza sativa [5]; 80 g/ha) [%]	ZEAMX herbicidal activity in percent (Zea mays [6]; 80 g/ha) [%]	ZEAMX herbicidal activity in percent (Zea mays [6]; 320 g/ha) [%]	VIOTR herbicidal activity in percent (Viola tricolor; 320 g/ha) [%]	MATIN herbicidal activity in percent (Matricaria inodora; 80 g/ha) [%]	MATIN herbicidal activity in percent (Matricaria inodora; 320 g/ha) [%]	AMARE herbicidal activity in percent (Amaranthus retroflexus; 80 g/ha) [%]	AMARE herbicidal activity in percent (Amaranthus retroflexus; 320 g/ha) [%]	STEME herbicidal activity in percent (Stellaria media; 320 g/ha) [%]	VERPE herbicidal activity in percent (Veronica persica; 80 g/ha) [%]	VERPE herbicidal activity in percent (Veronica persica; 320 g/ha) [%]	SETVI herbicidal activity in percent (Setaria viridis) [%]	other results
CC(=O)c1cnc(N[C@@H]2CCCc3cc(F)ccc32)nc1C [1.88]	0	20	0	0	0	10	0	0	0	0	0	90	100	100	80	100	100	100	100		
CC(=O)c1cnc(NC2CCOc3c(C)cccc32)nc1 (racemic) [1.8]							0	0		0	0	100		100	100	100			100	80	ECHCG herbicidal activity in percent (Echinochloa crus-galli; 320 g/ha): 90%; ALOMY herbicidal activity in percent (Alopecurus myosuroides; 80 g/ha): 0%; ALOMY herbicidal activity in percent (Alopecurus myosuroides; 320 g/ha): 0%
CC(=O)c1cnc(N[C@@H]2CCCc3ccccc32)nc1 [1.3, 1-{2-[(1R)-1,2,3,4-tetrahydronaphthalen-1-ylamino]pyrimidin-5-yl}ethanone]							20	20	20	20			90	100	100	100	90	100	100	80	chromatographic logP [7]: 2.51; ECHCG herbicidal activity in percent (Echinochloa crus-galli; 80 g/ha): 80%; ECHCG herbicidal activity in percent (Echinochloa crus-galli; 320 g/ha): 100%; POLCO herbicidal activity in percent (Polygonum convolvulus; 80 g/ha): 80%; POLCO herbicidal activity in percent (Polygonum convolvulus; 320 g/ha): 100%
Cc1ccc2c(c1)[C@H](Nc1ncc3c(n1)CC(C(C)C)CC3=O)[C@@H](C)C2 (some centres unmarked) [2.104]	0	0	0	0	0	0	0		20	0	0	100	80	100		100	100	100	100	100	ORYSA herbicidal activity in percent (Oryza sativa [5]; 320 g/ha): 20%; VIOTR herbicidal activity in percent (Viola tricolor; 80 g/ha): 90%; STEME herbicidal activity in percent (Stellaria media; 80 g/ha): 100%; LOLMU herbicidal activity in percent (Lolium multiflorum): 90%; POLCO herbicidal activity in percent (Polygonum convolvulus; 320 g/ha): 100%
O=C1CC(c2ccc(F)cc2)Cc2nc(N[C@@H]3CCCc4ccccc43)ncc21 (some centres unmarked) [2.92]	0	10	0	0	0	0	0	20	0	0	20	100		90	80	100	100	100	100	100	logp (HCOOH) [7]: oily; logp (HCOOH): 4.05; 1H-NMR (CDCl3, 400 MHZ, δ in ppm): 1.95 (m, 3H, 2H; ORYSA herbicidal activity in percent (Oryza sativa [5]; 320 g/ha): 20%; ECHCG herbicidal activity in percent (Echinochloa crus-galli; 320 g/ha): 100%; VIOTR herbicidal activity in percent (Viola tricolor; 80 g/ha): 90%; STEME herbicidal activity in percent (Stellaria media; 80 g/ha): 100%
CC(=O)c1cnc(N[C@@H]2CCCc3ccccc32)nc1C [1.82, 1-{4-methyl-2-[(1R)-1,2,3,4-tetrahydronaphthalen-1-ylamino]pyrimidin-5-yl}ethanone]		0					0	0	0	0		100	90	90	90	90	100	100	100		chromatographic logP [7]: 3.03; ORYSA herbicidal activity in percent (Oryza sativa [5]; 320 g/ha): 3%; VIOTR herbicidal activity in percent (Viola tricolor; 80 g/ha): 100%; POLCO herbicidal activity in percent (Polygonum convolvulus; 320 g/ha): 80%
